Experiments:
myrosinase = assay: Conversion of glucoraphanin to sulforaphane in simulated intestinal fluid (Example 5); assay type: biochemical, broccoli; settings: 38° C., 0.25 to 1.00 mmol/Liter ascorbic acid, FIG. 4
Protocol: Conversion of Glucoraphanin to Sulforaphane in the Presence of Simulated Intestinal Fluid. Simulated Intestinal Fluid (SW) powder, a commercially supplied concentrate closely approximating the human intestinal content in terms of composition, pH and ionic strength, was used. The experiment utilized a USP Dissolution Apparatus 2 (paddles), where into six dissolution vessels 500 mL of Simulated Intestinal Fluid was dispensed, along with 150 mg of freeze-dried broccoli sprout powder as a source of myrosinase. […] Aliquots were withdrawn every 15 minutes, and assayed for sulforaphane.

HepG2 cells = assay: Glutathione levels in HepG2 cells (o-phthalaldehyde fluorescence); assay type: cell-based, human
Protocol: The following study was conducted to determine the effect of the combination of sulforaphane and silibinin on glutathione levels. Glutathione plays an important role in the body, as it can serve as an antioxidant, detoxifier, and immunity enhancer. Decreased levels of glutathione can cause a patient to be susceptible to oxidative stress, illness, and cancer. Therefore, an increase in glutathione levels is a beneficial effect.
In the study, the human liver cancer cell line, HepG2 cells were treated with DMSO (vehicle control), sulforaphane (SFN), silibinin (Silib), or the combination of sulforaphane and silibinin, for 24 hours. Cell lysates were collected and glutathione levels were measured using o-phthalaldehyde (OPT) as a fluorescent reagent. FIG. 5 and FIG. 6 show the results of the study.
In Part 1 of the study, the effect of 0.5 μM SFN was compared to various concentrations of silibinin and to the combination of 0.5 μM SFN and silibinin at various concentrations. […] An increase in glutathione levels is a beneficial effect. The results are depicted in FIG. 5.
In Part 2 of the study, the effect of 2 μM SFN was compared to various concentrations of silibinin and to the combination of 2 μM SFN and silibinin at various concentrations. […] An increase in glutathione levels is a beneficial effect to detoxify cells. The results are depicted in FIG. 6.

[1] = tested on: NAD(P)H:quinine oxidoreductase (NQO1); settings: oral administration, mammary epithelium; cited from earlier work
heme oxygenase-1 (HO-1) = settings: oral administration, mammary epithelium; cited from earlier work

SMILES: O=C1O[C@H]([C@@H](O)CO)C(O)=C1O [ascorbic acid]
- Yield of sulforaphane versus ascorbic acid concentration (myrosinase): direct correlation between larger yield of sulforaphane and higher concentrations of ascorbic acid

SMILES: C[S+]([O-])CCCCN=C=S (centres unmarked) [sulforaphane, 1-isothiocyanato-4-methylsulfinylbutane]
- Glutathione levels compared to DMSO (vehicle) control (HepG2 cells; Part 1, 24 hours, 0.5 μM SFN, 100, 200, 300 μM Silib, FIG. 5): remained the same
- Glutathione levels compared to the control (HepG2 cells; Part 2, 24 hours, 2 μM SFN, 100, 300 μM Silib, FIG. 6): remained the same

SMILES: C[S+]([O-])CCCC/C(=N\OS(=O)(=O)O)S[C@@H]1O[C@H](CO)[C@@H](O)[C@H](O)[C@H]1O (stereo partly drawn) [GR, 1-S-[(1E)-5-(methylsulfinyl)-N-(sulfonatooxy)pentanimidoyl]-1-thio-β-D-glucopyranose]
- Increase in NQO1 enzymatic activity [1]: 3 fold
- Elevated immunostaining of HO-1 enzyme (heme oxygenase-1 (HO-1)): 4 fold
